Measurements as given in PMC6274259, “New 3-Cyano-2-Substituted Pyridines Induce Apoptosis in MCF 7 Breast Cancer Cells” (Molecules, 2016).

Key:
[1] = system: SK-OV-3 human ovarian carcinoma cell line; assay: WST-1 cell viability assay, SK-OV-3; format: cell-based; details: Homo sapiens, SK-OV-3; WST-1, 24 h treatment, mean ± S.D of three independent experiments
Description: (§1) The synthesized compounds were screened for their cytotoxicity on five cancer cell lines, namely SK-OV-3, MCF-7, MDA-MB-231, HCT-116 and RKO, using a WST colorimetric assay. The assay principle is based upon the reduction of the tetrazolium salt WST-1 to formazan by cellular mitochondrial dehydrogenases present in viable cells. […] Among the latter compounds the benzohydrazide derivative 9a emerged with the lowest IC50 in this study against MCF-7 cells compared to 5-FU. […] Based on the fact that 9a had less cytotoxic effects on normal breast epithelial cells it was subjected to further studies.
(§2) The following cell lines were used for the screening stage, obtained from the American Type Culture Collection (ATCC, Manassas, VA, USA); SK-OV-3 (HTB-77), MCF-12A (ATCC CRL-10782), MDA-MB-231 (ATCC HTB-26), HCT-116 (CCL-247), RKO (CRL-2577) and sub-culturing of the above cell lines was conducted in 75 cm^2 flasks. The old culture media was removed and discarded after assessing the confluency of the cells and the cells were rinsed with 2–3 mL diluted trypsin (1×) (trypsin/EDTA solution consists of 0.025% trypsin and 0.01% EDTA in PBS), for about 5 minutes for complete detachment. The cells were observed under the inverted microscope until the cell layer is completely dispersed. 75 cm^2 flasks were prepared and 16 mL of DMEM media for SK-OV-3, MCF-7, MDA-MB-231, (DMEM 4500 mg glucose) and RPMI media for HCT-116 were added to each flask. The cells were aspirated gently and added to the flasks. DMEM 4500 mg/L high glucose with 10% FBS, 5% streptomycin and penicillin, RPMI 1640 (prepared by adding 5% heat-inactivated FCS and 2 mm glutamine) were used. DMEM was also used for MCF-12A cells with the addition of human epidermal growth factor 20 ng/mL, insulin 0.01 mg/mL and hydrocortisone 500 ng/mL.
(§3) The synthesized compounds were screened for their anti-proliferative activity using 5-FU (F6627-1G, Sigma-Aldrich, St. Louis, MO, USA) as reference compound. A concentration of 0.4% DMSO was used in all experiment after ensuring 100% viability of the cell lines with this concentration. A 25 mM stock concentration of all compounds was prepared for further studies and analysis.
(§4) Cells were trypsinized and placed in a 15 mL Falcon tube, the cells were centrifuged for 3 min at 1000 rpm. Trypsin is decanted using a sterile pipette and then the pellet is loosened by flicking the tube few times then 5–10 mL warm DMEM or RPMI were added to the Falcon tube and the pellet is resuspended. Cell count was done next by taking 10 μL of the suspension into the cell counting slide and read under 10× cells/mL. A cell stock of 50,000 cells/mL was prepared for the 96 wells. Cells (100 μL) were added to each well using a sterile pipette each time to ensure consistency. The experiment was planned ahead of time using excel sheet, 3–6 wells were reserved as blank media while 3–6 wells for vehicle (DMSO). The plate was incubated for 24 h for compound treatment step. DMEM media was used to prepare different dilutions of the compounds. The old DMEM media was removed from the wells using sterile pipette in the hood and the media was replaced with 100 μL media with each compound. The plate was incubated for 24 h. After 24 h incubation, WST-1 reagent (Sigma) was added to each well and then the plate was incubated for 1 h before measuring the absorbance using VICTOR™ Multilabel Plate Reader (Perkin Elmer, Beaconsfield, UK). The absorbance of the colored solution can be quantified by measuring at a certain wavelength (usually between 500–600 nm), in this experiment the first reading was conducted at 540 nm and the second reading at 690 nm for the reference wavelength. The percentage of cell viability was determined as the ratio of the absorbance of the sample vs the control. Three independent experiments were performed. […] 5-Florouracil (Sigma-Aldrich, F6627-1G) was used as reference standard.

[2] = system: MCF-7 human breast adenocarcinoma cell line; assay: WST-1 cell viability assay, MCF-7; format: cell-based; details: Homo sapiens, MCF7, 24 h, WST-1, 24 h treatment, mean ± S.D of three independent experiments
Description: as §1, §2, §3, §4

[3] = system: MDA-MB-231 human breast adenocarcinoma cell line; assay: WST-1 cell viability assay, MDA-MB-231; format: cell-based; details: Homo sapiens, MDA-MB-231; WST-1, 24 h treatment, mean ± S.D of three independent experiments
Description: as §1, §2, §3, §4

[4] = system: HCT-116 human colon carcinoma cell line; assay: WST-1 cell viability assay, HCT-116; format: cell-based; details: Homo sapiens, HCT-116; WST-1, 24 h treatment, mean ± S.D of three independent experiments
Description: as §1, §2, §3, §4

[5] = system: RKO human colon carcinoma cell line; assay: WST-1 cell viability assay, RKO; format: cell-based; details: Homo sapiens, Colon carcinoma cell; WST-1, 24 h treatment, mean ± S.D of three independent experiments
Description: as §1, §2, §3, §4

Row | SMILES | IC50 [1] [µM] | IC50 [2] [µM] | IC50 [3] [µM] | IC50 [4] [µM] | IC50 [5] [µM] | melting point [°C]
1 | COc1ccc(-c2cc(-c3ccc(OC)c(OC)c3)c(C#N)c(OCC(=O)n3nc(C)cc3C)n2)cc1OC [Compound 11, 4,6-Bis(3,4-dimethoxyphenyl)-2-(2-(3,5-dimethyl-1H-pyrazol-1-yl)-2-oxoethoxy)pyridine-3-carbonitrile] | 26.2 ± 0.95 | > 50 | > 50 | 33.9 ± 0.87 | > 50 | 161 to 163
2 | COc1ccc(-c2cc(-c3ccc(OC)c(OC)c3)c(C#N)c(OCC(=O)N3N=C(C)CC3=O)n2)cc1OC [Compound 12, 4,6-bis(3,4-Dimethoxyphenyl)-2-(2-(3-methyl-5-oxo-4,5-dihydro-1H-pyrazol-1-yl)-2-oxoethoxy)pyridine-3-carbonitrile] | 20.3 ± 1.72 | > 50 | > 50 | 40.4 ± 1.76 | > 50 | 189 to 190
3 | COC(=O)c1c(SC)nn(C(=O)COc2nc(-c3ccc(OC)c(OC)c3)cc(-c3ccc(OC)c(OC)c3)c2C#N)c1N [Compound 13a, Methyl 5-amino-1-{[(3-cyano-4,6-bis(3,4-dimethoxyphenyl)pyridin-2-yl)oxy]acetyl}-3-(methylsulfanyl)-1H-pyrazole-4-carboxylate] | > 50 | > 50 | > 50 | 36.3 ± 1.71 | > 50 | 184 to 186
4 | COc1ccc(-c2cc(-c3ccc(OC)c(OC)c3)c(C#N)c(OCC(=O)n3nc(SC)c(C#N)c3N)n2)cc1OC [Compound 13b, 2-{2-[5-Amino-4-cyano-3-(methylsulfanyl)-1H-pyrazol-1-yl]-2-oxoethoxy}-4,6-bis(3,4-dimethoxyphenyl)-pyridine-3-carbonitrile] | > 50 | > 50 | > 50 | 30.1 ± 0.76 | > 50 | 202 to 204
